Data: US20260182575A1, “MOLECULES HAVING PESTICIDAL UTILITY AND INTERMEDIATES AND PROCESSES RELATED THERETO” (CORTEVA AGRISCIENCE LLC, priority 2022, published 2026)

Tests used:
Format in all cases: in vivo
[1] = test system: Fall Armyworm (Spodoptera frugiperda, LAPHFR, FAW); experiment: Bioassay 4: fall armyworm, artificial diet, 128-cell tray; conditions: AI alone
Description: (§1) Stock solutions were prepared with F1 as well as for each of the active ingredients individually. Test solutions were prepared from the stock solutions. Test solutions were prepared containing F1, the individual active ingredients, and mixtures of F1 with each of the active ingredients. The test solution for F1 was prepared by adding 500 μL of the stock solution to a 25 mL glass vial, then adding 500 μL of a 9:1 mixture of acetone:water. The individual active ingredients were prepared by adding 500 μL of stock solution to a 25 mL glass vial, then adding 500 μL of a 9:1 mixture of acetone:water. The test solutions containing mixtures of F1, and the individual active ingredients were prepared by adding 500 μL of the active ingredient stock solution to a 25 mL glass vial, followed by 500 μL of the F1 stock solution, creating a test solution containing 0.04% (w/v) of F1 and 0.4% (w/v) of the active ingredient. Each test solution was serially diluted to create desired doses of test solutions (F1 at 0.04% (w/v), 0.004% (w/v), 0.0004% (w/v), 0.00004% (w/v), 0.000004% (w/v), and 0.0000004% (w/v) and active ingredients at 0.4% (w/v), 0.04% (w/v), 0.004% (w/v), 0.0004% (w/v), 0.00004% (w/v), and 0.000004% (w/v)).
(§2) The test solutions were tested against CEW, FAW, and SBL using the following procedure: an artificial lepidopteran diet (Multispecies Lepidopteran Diet, Southland Products) was distributed in 128-cell bioassay trays (Frontier Agricultural Sciences™). 50 μL of test solution was pipetted into a cell in the bioassay tray. (The test solution doses of 0.04% (w/v), 0.004% (w/v), 0.0004% (w/v), 0.00004% (w/v), 0.000004% (w/v), and 0.0000004% (w/v) translated to concentrations of 5, 0.5, 0.05, 0.005, 0.0005, and 0.00005 μg/cm^2 on the diet, respectively.) A reference treatment (solvent check) was treated with the diluent only. Each treatment was replicated 8 times for each species. A 2nd instar CEW, FAW, or SBL larva was placed on top of the diet in each cell and was contained with a clear perforated adhesive lid. Test trays were held at approximately 26° C. and ambient relative humidity (RH) prior to grading.
(§3) After 5 days, the number of live larvae were recorded from each cell and percent control was measured using Abbott's correction formula (W. S. Abbott, J. Econ. Entomol. 18 (1925), pp. 265-267) as follows:
(§4) where X=No. of live larvae on solvent check and Y=No. of live larvae on treated diet. In Table B4 the “Expected % Control” was calculated using the method described in Colby S. R., Weeds, 1967, 15, 20-22. Bioassay 5: Neotropical Brown Stink Bug (Euschistus heros, EUSCHE, “BSB”).

[2] = test system: Corn Earworm (Helicoverpa zea, HELIZE, CEW); experiment: Bioassay 4: corn earworm, artificial diet, 128-cell tray; conditions: AI alone
Description: as §1, §2, §3, §4

[3] = test system: Soybean Looper (Chrysodeixis includens, PSEPIN, SBL); experiment: Bioassay 4: soybean looper, artificial diet, 128-cell tray; conditions: AI alone
Description: as §1, §2, §3, §4

[4] = test system: Corn Earworm (Helicoverpa zea, HELIZE, CEW); experiment: Bioassay 7: corn earworm, artificial diet, 96 well plate
Description: (§5) The test solutions were tested against CEW, FAW, BAW, and SBL using the following procedure: an artificial lepidopteran diet (Multispecies Lepidopteran Diet, Southland Products) was distributed in 96 well plate. Twenty μL of test solution was pipetted onto a cell in the bioassay plate. […] Each treatment was replicated 5 times for each species. Approximately five first instar CEW, FAW, BAW, or SBL larva were placed on top of the diet in each cell and was contained with a clear perforated adhesive lid. Test trays were held at approximately 25° C. and ambient relative humidity prior to grading. After five days, the number of cells where all the larvae were dead were recorded as 100% and averaged across all replicates; then the percent control was measured using Abbott's correction formula (W. S. Abbott, J. Econ. Entomol. 18 (1925), pp. 265-267) as follows:
(§6) where X=No. of live larvae on solvent check and Y=No. of live larvae on treated diet. In Table 7 the “Expected % Control” was calculated using the method described in Colby S. R., Weeds, 1967, 15, 20-22. Bioassay 8: Western Corn Rootworm (Diabrotica virgifera virgifera, DIABVI, “WCR”)

[5] = test system: Western Flower Thrips (Frankliniella occidentalis, FRANOC, WFT); experiment: Bioassay 3: western flower thrips, cotton leaf disc dip; conditions: 3 days
Description: Stock solutions of F1 and various active ingredients were prepared initially at a concentration of 0.1 mg/mL using acetone as a diluent. Stock solutions were prepared with F1 as well as for each of the active ingredients individually. Test solutions were prepared from the stock solutions. Test solutions were prepared containing F1, the individual active ingredients, and mixtures of F1 with each of the active ingredients. The test solutions for F1 and the individual active ingredients were prepared by adding 500 μL of stock solution to a 25 mL glass vial, then adding 500 μL of acetone, followed by the addition of 9 mL water with 0.025% Tween® 20 to create a 0.0005% (w/v) solution. The test solutions containing mixtures of F1, and the individual active ingredients were prepared by adding 500 μL of the active ingredient stock solution to a 25 mL glass vial, followed by 500 μL of the F1 stock solution, then by the addition of 9 mL water with 0.025% Tween® 20 to create a test solution containing 0.0005% (w/v) F1 and 0.0005% (w/v) of the active ingredient. Each test solution was serially diluted to create desired doses of test solutions (0.0005% (w/v), 0.000125% (w/v), 0.00003125% (w/v), 0.0000078% (w/v), and 0.00000195% (w/v)).
The test solutions were tested against WFT using the following procedure: Leaf discs (2.7 cm in diameter) were cut from the true leaves of cotton plants. Leaf discs were dipped into the test solutions and shaken to ensure complete coverage of the leaf disc and then placed in Millipore® PetriSlides containing a filter paper disc. Treated leaf discs were air dried for approximately 1 hour. Each leaf disc was infested with 5 WFT (9-10-day old nymphs) by placement on each leaf disc, and the PetriSlides were capped to prevent escape. Each treatment was replicated three times and the test treatments were held at approximately 26° C. and ambient relative humidity (RH) prior to grading. Reference discs (solvent check) were treated with the diluent only. Evaluation was conducted by counting the number of live WFT under magnification 3 days after treatment. Percent control was measured using Abbott's correction formula (W. S. Abbott, J. Econ. Entomol. 18 (1925), pp. 265-267) as follows:
where X=No. of live nymphs on solvent check leaf discs and Y=No. of live nymphs on treated leaf discs. In Table B3 the “Expected % Control” was calculated using the method described in Colby S. R., Weeds, 1967, 15, 20-22. Bioassay 4: Corn Earworm (Helicoverpa zea, HELIZE, “CEW”), Fall Armyworm (Spodoptera frugiperda, LAPHFR, “FAW”), and Soybean Looper (Chrysodeixis includens, PSEPIN, “SBL”).

[6] = test system: Beet Armyworm (Spodoptera exigua, LAPHEG, BAW); experiment: Bioassay 7: beet armyworm, artificial diet, 96 well plate; conditions: AI alone at 0.4 wt %
Description: as §5, §6

[7] = test system: Soybean Looper (Chrysodeixis includens, PSEPIN, SBL); experiment: Bioassay 7: soybean looper, artificial diet, 96 well plate; conditions: CL
Description: as §5, §6

[8] = AI alone at 1:1 rate to F1 3.125 (10^-6 Wt %)
[9] = AI alone at 1:1 rate to F1 0.78 (10^-6 Wt %)
[10] = AI alone at 1:1 rate to F1 0.195 (10^-6 Wt %)

| Molecule | Average % Control AI ([1]; 0.000004 wt %) [%] | Average % Control AI ([2]; 0.000004 wt %) [%] | Average % Control AI ([2]; 0.00004 wt %) [%] | Average % Control AI ([3]; 0.000004 wt %) [%] | also measured |
| --- | --- | --- | --- | --- | --- |
| CC(c1ccc(C(F)(F)F)nc1)S(C)(=O)=NC#N (stereo not shown) [Sulfoxaflor] | 0.0 | 0.0 | 0.0 | 12.5 | – |
| FC(F)(F)c1ccc(COc2ncncc2C2OCCCO2)cc1 [Benzpyrimoxan] | 0.0 | 0.0 | 0.0 | 0.0 | – |
| CCCC1COC(Cn2cncn2)(c2ccc(Cl)cc2Cl)O1 (stereo not shown) [Propiconazole] | – | – | – | – | Average % Control AI ([4]; AI alone at 0.4 wt %): 0.0% |
| Spinosad | 12.5 | 0.0 | 0.0 | 0.0 | Average % Control AI [5, 8]: 57.1% |
| CC1(C)CCC(Cc2ccc(Cl)cc2)C1(O)Cn1cncn1 (stereo not shown) [Metconazole] | – | – | – | – | Average % Control AI [6]: 0.0% |
| Cn1cc(C(=O)Nc2ccccc2-c2cc(F)c(F)c(F)c2)c(C(F)F)n1 [Fluxapyroxad] | – | – | – | – | Average % Control AI [6]: 0.0% |
| CNC(=O)c1cc(C#N)cc(C)c1NC(=O)c1cc(Br)nn1-c1ncccc1Cl [Cyantraniliprole] | 0.0 | 0.0 | 0.0 | 0.0 | Average % Control AI ([1]; 0.00004 wt %): 0.0%; Average % Control AI ([3]; 0.00004 wt %): 0.0%; Average % Control AI [5, 9]: 0.0% |
| N#Cc1c[nH]cc1-c1cccc2c1OC(F)(F)O2 [Fludioxonil] | – | – | – | – | Average % Control AI [6]: 0.0% |
| CC(C(=O)Nc1cn(-c2cccnc2)nc1Cl)S(C)(=O)=O (stereo not shown) [AI-2, N-(3-chloro-1-(pyridin-3-yl)-1H-pyrazol-4-yl)-2-(methylsulfonyl)propanamide] | 0.0 | 0.0 | 0.0 | 0.0 | – |
| CC1(C)[C@H](/C=C(\Cl)C(F)(F)F)[C@@H]1C(=O)O[C@@H](C#N)c1cccc(Oc2ccccc2)c1 [Lambda-cyhalothrin] | 0.0 | 0.0 | – | 12.5 | Average % Control AI ([1]; 0.00004 wt %): 0.0% |
| CC(O)(Cn1cncn1)c1ccc(Oc2ccc(Cl)cc2)cc1C(F)(F)F (stereo not shown) [Mefentrifluconazole] | – | – | – | – | Average % Control AI [6]: 0.0%; Average % Control AI ([4]; AI alone at 0.4 wt %): 0.0% |
| CO/C=C(/C(=O)OC)c1ccccc1Oc1cc(Oc2ccccc2C#N)ncn1 [Azoxystrobin] | – | – | – | – | Average % Control AI [6]: 0.0% |
| Tebuconazole | – | – | – | – | Average % Control AI ([4]; AI alone at 0.4 wt %): 0.0% |
| CC(COc1ccc(Oc2ccccc2)cc1)Oc1ccccn1 (stereo not shown) [Pyriproxyfen] | 12.5 | 0.0 | 0.0 | 12.5 | – |
| [Cu+2].[OH-].[OH-] [Copper Hydroxide] | – | – | – | – | Average % Control AI ([7]; AI alone at 0.4 wt %): 0.0% |
| C/C(=N\C#N)N(C)Cc1ccc(Cl)nc1 [Acetamiprid] | – | 0.0 | 0.0 | – | Average % Control AI ([1]; 0.00004 wt %): 0.0%; Average % Control AI ([3]; 0.00004 wt %): 0.0% |
| COC(=O)N(OC)c1ccccc1COc1ccn(-c2ccc(Cl)cc2)n1 [Pyraclostrobin] | – | – | – | – | Average % Control AI ([7]; AI alone at 0.04 wt %): 0.0%; Average % Control AI ([4]; AI alone at 0.04 wt %): 0.0% |
| COc1ccc(Cl)c(S(=O)(=O)NC(=O)c2cn3cc(C(F)(F)F)cc(Cl)c3n2)c1 [Fluazain dolizine] | – | – | – | – | Average % Control AI [6]: 0.0% |
| O=C(N=c1ccccn1Cc1ccc(Cl)nc1)C(F)(F)F [Flupyrimin] | 0.0 | 0.0 | 0.0 | 0.0 | Average % Control AI ([1]; 0.00004 wt %): 0.0%; Average % Control AI ([3]; 0.00004 wt %): 0.0%; Average % Control AI [5, 10]: 4.8% |
| COc1cccc(C(=O)NN(C(=O)c2cc(C)cc(C)c2)C(C)(C)C)c1C [Methoxyfenozide] | 12.5 | 0.0 | 0.0 | 25.0 | Average % Control AI ([1]; 0.00004 wt %): 0.0%; Average % Control AI [5, 8]: 4.8% |
| CCOC(=O)OC1=C(c2cc(C)ccc2C)C(=O)N[C@]12CC[C@@H](OC)CC2 [Spirotetramat] | 0.0 | 0.0 | 0.0 | 12.5 | – |
| Tetraniliprole | 0.0 | 0.0 | 0.0 | 0.0 | Average % Control AI ([1]; 0.00004 wt %): 50.0%; Average % Control AI ([2]; 0.0004 wt %): 12.5%; Average % Control AI ([3]; 0.00004 wt %): 12.5%; Average % Control AI [5, 10]: 0.0%; Average % Control AI [5, 9]: 5.7%; Average % Control AI [5, 8]: 0.0%; Average % Control AI ([5]; AI alone at 1:1 rate to F1 12.5 (10^-6 Wt %)): 12.6%; Average % Control AI ([5]; AI alone at 1:1 rate to F1 50 (10^-6 Wt %)): 0.0% |
| Thiram | – | – | – | – | Average % Control AI ([7]; AI alone at 0.4 wt %): 0.0%; Average % Control AI ([4]; AI alone at 0.4 wt %): 0.0% |
| O=C(NCCc1ncc(C(F)(F)F)cc1Cl)c1ccccc1C(F)(F)F [Fluopyram] | – | – | – | – | Average % Control AI [6]: 0.0% |
| Dinotefuran | – | 0.0 | 0.0 | – | – |
